# Source: publication PMC7101356, “Cross-site and cross-platform variability of automated patch clamp assessments of drug effects on human cardiac currents in recombinant cells” (Scientific Reports, 2020)
# What was measured:
# late hNav1.5 = biological target: T1, late hNav1.5 (Homo sapiens, UniProt Q14524); test: Automated patch clamp, late hNav1.5 current block (ATX-II activated); assay type: cell-based
# T1 construct: expressed in transfected cells; host or cells: HEK293 or CHO, depending on site
# T1 sequence (Q14524 whole entry): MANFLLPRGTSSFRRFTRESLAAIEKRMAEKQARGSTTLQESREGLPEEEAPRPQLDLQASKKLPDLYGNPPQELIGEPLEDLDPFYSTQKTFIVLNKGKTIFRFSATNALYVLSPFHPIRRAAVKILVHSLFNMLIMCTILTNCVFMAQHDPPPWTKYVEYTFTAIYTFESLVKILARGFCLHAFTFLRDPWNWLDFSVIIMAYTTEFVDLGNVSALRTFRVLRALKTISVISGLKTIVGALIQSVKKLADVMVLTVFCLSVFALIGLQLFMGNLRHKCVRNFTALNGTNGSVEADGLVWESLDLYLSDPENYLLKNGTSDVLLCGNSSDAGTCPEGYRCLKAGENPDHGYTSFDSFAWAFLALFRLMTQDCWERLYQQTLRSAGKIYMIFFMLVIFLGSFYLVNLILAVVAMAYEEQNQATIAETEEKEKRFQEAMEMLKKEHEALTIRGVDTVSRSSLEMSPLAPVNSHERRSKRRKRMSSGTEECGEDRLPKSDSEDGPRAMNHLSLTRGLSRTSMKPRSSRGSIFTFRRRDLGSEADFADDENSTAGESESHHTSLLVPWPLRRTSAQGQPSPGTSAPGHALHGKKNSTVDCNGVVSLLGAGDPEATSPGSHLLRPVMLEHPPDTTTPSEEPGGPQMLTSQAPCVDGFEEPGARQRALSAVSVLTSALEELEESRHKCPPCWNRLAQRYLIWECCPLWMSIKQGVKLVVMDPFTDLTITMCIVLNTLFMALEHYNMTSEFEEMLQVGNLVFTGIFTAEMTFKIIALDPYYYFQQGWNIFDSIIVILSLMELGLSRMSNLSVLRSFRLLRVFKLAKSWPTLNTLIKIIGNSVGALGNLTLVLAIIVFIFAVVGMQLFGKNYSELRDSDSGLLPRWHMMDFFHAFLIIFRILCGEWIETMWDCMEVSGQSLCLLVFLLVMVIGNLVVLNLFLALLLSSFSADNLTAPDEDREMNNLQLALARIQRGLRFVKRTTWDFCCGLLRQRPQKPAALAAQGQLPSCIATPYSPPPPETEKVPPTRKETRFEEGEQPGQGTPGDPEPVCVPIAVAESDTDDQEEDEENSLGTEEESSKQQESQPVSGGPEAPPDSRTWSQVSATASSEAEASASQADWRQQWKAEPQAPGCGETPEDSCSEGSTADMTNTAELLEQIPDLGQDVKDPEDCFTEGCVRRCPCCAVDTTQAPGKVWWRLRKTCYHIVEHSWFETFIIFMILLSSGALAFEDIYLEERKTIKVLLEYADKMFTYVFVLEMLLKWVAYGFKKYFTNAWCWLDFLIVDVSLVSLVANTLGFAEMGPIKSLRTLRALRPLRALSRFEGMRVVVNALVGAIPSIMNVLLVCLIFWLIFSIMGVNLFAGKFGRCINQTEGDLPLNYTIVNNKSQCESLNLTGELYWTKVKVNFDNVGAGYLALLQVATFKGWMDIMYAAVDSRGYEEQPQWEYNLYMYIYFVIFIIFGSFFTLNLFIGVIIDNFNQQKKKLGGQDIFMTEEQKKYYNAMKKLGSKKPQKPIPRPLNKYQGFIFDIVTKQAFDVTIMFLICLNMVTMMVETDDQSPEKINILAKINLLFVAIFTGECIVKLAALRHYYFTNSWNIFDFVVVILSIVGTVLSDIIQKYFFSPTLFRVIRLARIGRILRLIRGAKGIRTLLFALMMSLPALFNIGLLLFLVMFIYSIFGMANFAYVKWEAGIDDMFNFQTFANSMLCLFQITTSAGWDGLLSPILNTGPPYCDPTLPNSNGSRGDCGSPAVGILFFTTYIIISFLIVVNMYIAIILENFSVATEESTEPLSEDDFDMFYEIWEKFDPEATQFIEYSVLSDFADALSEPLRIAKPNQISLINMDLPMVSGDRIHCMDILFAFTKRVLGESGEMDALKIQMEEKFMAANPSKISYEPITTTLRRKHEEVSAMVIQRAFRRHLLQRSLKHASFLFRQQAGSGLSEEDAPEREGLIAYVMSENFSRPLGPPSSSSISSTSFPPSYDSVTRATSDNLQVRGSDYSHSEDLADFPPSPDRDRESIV
# [1] = based on CiPA evaluations; cited from earlier work
# hERG [2] = biological target: T2, hERG (Homo sapiens, UniProt Q12809); test: Automated patch clamp, hERG current block, Milnes protocol (site s06); assay type: cell-based; set-up: expressed in transfected cells; host or cells: HEK293 or CHO, depending on site (site s06, Milnes protocol: HEK293); details: s06_p4, HEK293, 22–24 °C
# T2 sequence (Q12809 whole entry): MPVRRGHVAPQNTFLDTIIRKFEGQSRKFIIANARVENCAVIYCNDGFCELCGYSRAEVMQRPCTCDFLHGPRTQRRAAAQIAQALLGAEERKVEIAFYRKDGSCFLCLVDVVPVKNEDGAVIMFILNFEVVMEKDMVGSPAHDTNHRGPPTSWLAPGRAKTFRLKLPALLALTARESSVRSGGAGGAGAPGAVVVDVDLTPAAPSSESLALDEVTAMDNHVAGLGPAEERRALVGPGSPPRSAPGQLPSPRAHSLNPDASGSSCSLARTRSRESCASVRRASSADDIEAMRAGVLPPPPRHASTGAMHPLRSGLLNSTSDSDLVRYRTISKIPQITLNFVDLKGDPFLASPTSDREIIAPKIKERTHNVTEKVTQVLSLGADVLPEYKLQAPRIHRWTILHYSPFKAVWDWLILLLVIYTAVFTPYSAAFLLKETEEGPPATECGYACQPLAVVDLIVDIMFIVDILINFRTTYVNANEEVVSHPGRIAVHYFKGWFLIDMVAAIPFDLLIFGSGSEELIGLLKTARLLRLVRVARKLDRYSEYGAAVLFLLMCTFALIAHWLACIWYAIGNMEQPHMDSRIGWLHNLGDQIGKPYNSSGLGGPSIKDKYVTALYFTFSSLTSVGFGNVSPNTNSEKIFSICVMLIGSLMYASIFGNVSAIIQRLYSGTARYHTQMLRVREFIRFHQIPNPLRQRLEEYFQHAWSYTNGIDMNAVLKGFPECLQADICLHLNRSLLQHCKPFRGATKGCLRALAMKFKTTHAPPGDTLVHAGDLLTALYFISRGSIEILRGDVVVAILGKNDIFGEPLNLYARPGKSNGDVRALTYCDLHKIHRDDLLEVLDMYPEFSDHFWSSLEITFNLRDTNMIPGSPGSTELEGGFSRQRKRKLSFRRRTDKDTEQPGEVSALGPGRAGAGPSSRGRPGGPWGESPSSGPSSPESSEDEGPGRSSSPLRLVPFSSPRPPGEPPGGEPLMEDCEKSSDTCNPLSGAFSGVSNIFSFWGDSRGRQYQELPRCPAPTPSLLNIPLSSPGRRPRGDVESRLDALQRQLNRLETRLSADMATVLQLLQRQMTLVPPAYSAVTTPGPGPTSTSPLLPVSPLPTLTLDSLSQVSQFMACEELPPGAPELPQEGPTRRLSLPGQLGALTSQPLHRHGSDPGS
# Excerpt: Thus, a single test site (s06) elicited hERG current with a 10-s depolarizing voltage step from −80 mV to 0 mV every 25 s (Milnes protocol, see Milnes et al.[14]).
# The steady state current at each concentration was used to determine the concentration-response relationships. Mean concentration-response data were fitted to a standard sigmoidal four-parameter logistic equation (GraphPad Prism 7; GraphPad Inc., La Jolla, CA) of the form: Y=Bottom+(Top−Bottom)/(1+10^∧(LogIC50−X)∗HillSlope) where Y is the current inhibition (in % of pre-drug control), X is the logarithm of drug concentration, and IC50 is the drug concentration producing half-maximal current inhibition. Curve fitting was performed using the following constraints: Top = 100%, Bottom = 0%, Hill Slope <2. No curve fitting was performed in cases with an obvious lack of a concentration-dependent current inhibition and/or small effect size (approximately ≤20%).
# This protocol consists of a set of two 25-s-long pulse protocols, with one protocol (“Pulse”) containing a prolonged 10-s-long depolarizing test pulse (0 mV) followed by a 14-s-long return pulse to −80 mV, and a second protocol “No-Pulse” consisting of the same pulse structure without the depolarizing test pulse[18].
# hCav1.2 = hCav1.2 (Homo sapiens, UniProt Q13936); test: Automated patch clamp, hCav1.2 current block; details: for IC50: log IC50, half-maximal inhibitory concentration
# hERG [3] = biological target: T2, hERG; test: Automated patch clamp, hERG current block (consensus step-ramp protocol); details: for hERG K+ current inhibition, Mean, at maximal concentration: max conc [mol/L]: bep 3.00E-07, cpz 3.00E-06, cis 3.00E-07, dil 1.00E-04, dof 1.00E-07, mex 1.00E-04, ond 1.00E-05, qui 1.00E-05, ran 1.00E-04, sot 3.00E-04, ter 3.00E-07, ver 1.00E-06; for hERG K+ current inhibition, Mean, at minimal concentration: min conc [mol/L]: bep 1.00E-08, cpz 1.00E-07, cis 1.00E-09, dil 3.00E-06, dof 1.00E-09, mex 1.00E-06, ond 3.00E-07, qui 1.00E-07, ran 3.00E-06, sot 1.00E-05, ter 1.00E-08, ver 3.00E-08
compound,measurement,setting,value
"Cc1cccc(C)c1OCC(C)N (stereo not shown) [mex, mexiletine]","nH, Hill slope, late hNav1.5 inhibition",late hNav1.5; site_platform s06_p4,0.97
same,"Late hNav1.5 Na+ current inhibition, Mean","late hNav1.5; site_platform s06_p4, 1.00E-04 mol/L",96.2%
same,"Late hNav1.5 Na+ current inhibition, Mean","late hNav1.5; site_platform s06_p4, 1.00E-06 mol/L",18.9%
same,"nH, Hill slope, late hNav1.5 inhibition",late hNav1.5; site_platform s07_p6,1.16
same,"Late hNav1.5 Na+ current inhibition, Mean","late hNav1.5; site_platform s07_p6, 1.00E-04 mol/L",89.6%
same,"Late hNav1.5 Na+ current inhibition, Mean","late hNav1.5; site_platform s07_p6, 1.00E-06 mol/L",5.5%
same,"nH, Hill slope, late hNav1.5 inhibition",late hNav1.5; site_platform s13_p2,0.53
same,"Late hNav1.5 Na+ current inhibition, Mean","late hNav1.5; site_platform s13_p2, 1.00E-04 mol/L",76.8%
same,"Late hNav1.5 Na+ current inhibition, Mean","late hNav1.5; site_platform s13_p2, 1.00E-06 mol/L",26.4%
same,"nH, Hill slope, late hNav1.5 inhibition",late hNav1.5; site_platform s14_p1,4.08
same,"Late hNav1.5 Na+ current inhibition, Mean","late hNav1.5; site_platform s14_p1, 1.00E-04 mol/L",98.8%
same,"Late hNav1.5 Na+ current inhibition, Mean","late hNav1.5; site_platform s14_p1, 1.00E-06 mol/L",-15.4%
same,TdP Risk Category,[1],Low
same,"hERG K+ current nH, Hill slope",hERG [2],1.02
same,"hERG K+ current inhibition, Mean, at maximal concentration","hERG [2]; max conc [mol/L]: bep 3.00E-07, cpz 3.00E-06, cis 3.00E-07, dil 1.00E-04, dof 1.00E-07, mex 1.00E-04, ond 1.00E-05, qui 1.00E-05, ran 1.00E-04, sot 3.00E-04, ter 3.00E-07, ver 1.00E-06",71.6%
same,"hERG K+ current inhibition, Mean, at minimal concentration","hERG [2]; min conc [mol/L]: bep 1.00E-08, cpz 1.00E-07, cis 1.00E-09, dil 3.00E-06, dof 1.00E-09, mex 1.00E-06, ond 3.00E-07, qui 1.00E-07, ran 3.00E-06, sot 1.00E-05, ter 1.00E-08, ver 3.00E-08",-3.4%
same,IC50,hERG [2]; read-out: hERG K+ current log IC50 (converted),37.2 µM
same,IC50,hCav1.2; site s01_p1,372 µM
same,IC50,hCav1.2; site s06_p4,178 µM
same,IC50,hCav1.2; site s14_p1,234 µM
same,IC50,hCav1.2; site s16_p3,251 µM
same,IC50,hCav1.2; site s18_p1,162 µM
same,"nH, Hill slope",hCav1.2; site s01_p1,0.60
same,"Peak hCav1.2 Ca2+ current inhibition, Mean","hCav1.2; site s01_p1, 1.00E-04 mol/L",34.0%
same,"Peak hCav1.2 Ca2+ current inhibition, Mean","hCav1.2; site s01_p1, 1.00E-06 mol/L",10.1%
same,"log IC50, half-maximal inhibitory concentration","hCav1.2; site s02_p2, corrected for rundown",no inh.
same,"Peak hCav1.2 Ca2+ current inhibition, Mean","hCav1.2; site s02_p2, corrected for rundown, 1.00E-04 mol/L",1.8%
same,"Peak hCav1.2 Ca2+ current inhibition, Mean","hCav1.2; site s02_p2, corrected for rundown, 1.00E-06 mol/L",-11.1%
same,"nH, Hill slope",hCav1.2; site s06_p4,0.87
same,"Peak hCav1.2 Ca2+ current inhibition, Mean","hCav1.2; site s06_p4, 1.00E-04 mol/L",39.1%
same,"Peak hCav1.2 Ca2+ current inhibition, Mean","hCav1.2; site s06_p4, 1.00E-06 mol/L",0.5%
same,"log IC50, half-maximal inhibitory concentration",hCav1.2; site s11_p1,no inh.
same,"Peak hCav1.2 Ca2+ current inhibition, Mean","hCav1.2; site s11_p1, 1.00E-04 mol/L",22.9%
same,"Peak hCav1.2 Ca2+ current inhibition, Mean","hCav1.2; site s11_p1, 1.00E-06 mol/L",12.9%
same,"nH, Hill slope",hCav1.2; site s14_p1,2.00
same,"Peak hCav1.2 Ca2+ current inhibition, Mean","hCav1.2; site s14_p1, 1.00E-04 mol/L",16.2%
same,"Peak hCav1.2 Ca2+ current inhibition, Mean","hCav1.2; site s14_p1, 1.00E-06 mol/L",-17.7%
same,"nH, Hill slope",hCav1.2; site s16_p3,0.80
same,"Peak hCav1.2 Ca2+ current inhibition, Mean","hCav1.2; site s16_p3, 1.00E-04 mol/L",31.7%
same,"Peak hCav1.2 Ca2+ current inhibition, Mean","hCav1.2; site s16_p3, 1.00E-06 mol/L",-0.3%
same,"nH, Hill slope",hCav1.2; site s18_p1,1.07
same,"Peak hCav1.2 Ca2+ current inhibition, Mean","hCav1.2; site s18_p1, 1.00E-04 mol/L",35.7%
same,"Peak hCav1.2 Ca2+ current inhibition, Mean","hCav1.2; site s18_p1, 1.00E-06 mol/L",2.3%
same,IC50,"hERG [3]; hERG K+ current log IC50, s01_p1, CHO, 23 °C",138 µM
same,IC50,"hERG [3]; hERG K+ current log IC50, s02_p2, HEK293, 22–26 °C",110 µM
same,IC50,"hERG [3]; hERG K+ current log IC50, s03_p2, HEK293, room temperature",20.4 µM
same,IC50,"hERG [3]; hERG K+ current log IC50, s04_p3, CHO, room temperature",47.9 µM
same,IC50,"hERG [3]; hERG K+ current log IC50, s15_p1, HEK293, 22–23 °C",24 µM
same,IC50,"hERG [3]; hERG K+ current log IC50, s16_p3, HEK293, room temperature",85.1 µM
same,inhibition at 0.0001 mol/L,"hERG [3]; human, hERG K+ current inhibition, Mean, site_platform s07_p5, 1.00E-04 mol/L",65%
same,inhibition at 1e-06 mol/L,"hERG [3]; human, hERG K+ current inhibition, Mean, site_platform s07_p5, 1.00E-06 mol/L",-10.5%
same,"inhibition at 4 min, 0.0001 mol/L","hERG [3]; human, hERG K+ current inhibition, Mean, site_platform s10_p3, 1.00E-04 mol/L",42%
same,"inhibition at 4 min, 1e-06 mol/L","hERG [3]; human, hERG K+ current inhibition, Mean, site_platform s10_p3, 1.00E-06 mol/L",-3.5%
same,"inhibition at 7 min, 0.0001 mol/L","hERG [3]; human, hERG K+ current inhibition, Mean, site_platform s11_p1, 1.00E-04 mol/L",73.7%
same,inhibition at 0.0001 mol/L,"hERG [3]; human, hERG K+ current inhibition, Mean, site_platform s12_p2, 1.00E-04 mol/L",56.6%
same,inhibition at 1e-06 mol/L,"hERG [3]; human, hERG K+ current inhibition, Mean, site_platform s12_p2, 1.00E-06 mol/L",0.2%
same,inhibition at 0.0001 mol/L,"hERG [3]; human, hERG K+ current inhibition, Mean, site_platform s13_p2, 1.00E-04 mol/L",78.6%
same,inhibition at 1e-06 mol/L,"hERG [3]; human, hERG K+ current inhibition, Mean, site_platform s13_p2, 1.00E-06 mol/L",7.7%
same,"inhibition at 7 min, 0.0001 mol/L","hERG [3]; human, hERG K+ current inhibition, Mean, site_platform s14_p1, 1.00E-04 mol/L",60.2%
same,"inhibition at 7 min, 1e-06 mol/L","hERG [3]; human, hERG K+ current inhibition, Mean, site_platform s14_p1, 1.00E-06 mol/L",10.8%
same,"inhibition at 7 min, 1e-06 mol/L","hERG [3]; human, recombinant cells expressing hERG, hERG K+ current inhibition, Mean, site_platform s11_p1, 1.00E-06 mol/L",29.4%
same,IC50,"hERG [3]; log IC50, hERG K+ current inhibition, site_platform s07_p5",72.4 µM
same,IC50,"hERG [3]; log IC50, hERG K+ current inhibition, site_platform s10_p3",126 µM
same,IC50,"hERG [3]; log IC50, hERG K+ current inhibition, site_platform s11_p1",15.8 µM
same,IC50,"hERG [3]; log IC50, hERG K+ current inhibition, site_platform s12_p2",77.6 µM
same,IC50,"hERG [3]; log IC50, hERG K+ current inhibition, site_platform s13_p2",34.7 µM
same,IC50,"hERG [3]; log IC50, hERG K+ current inhibition, site_platform s14_p1",63.1 µM
same,"hERG K+ current nH, Hill slope","hERG [3]; s01_p1, CHO, 23 °C",0.78
same,"hERG K+ current inhibition, Mean, at maximal concentration","hERG [3]; s01_p1, CHO, 23 °C",46.1%
same,"hERG K+ current inhibition, Mean, at minimal concentration","hERG [3]; s01_p1, CHO, 23 °C",0.7%
same,"hERG K+ current nH, Hill slope","hERG [3]; s02_p2, HEK293, 22–26 °C",0.95
same,"hERG K+ current inhibition, Mean, at maximal concentration","hERG [3]; s02_p2, HEK293, 22–26 °C",48.2%
same,"hERG K+ current inhibition, Mean, at minimal concentration","hERG [3]; s02_p2, HEK293, 22–26 °C",1.0%
